Assay results published in patent publication US8168651B2, “Protein kinase modulators” (Cylene Pharmaceuticals, Inc., priority 2008, dated 2012).

Columns and labels:
Experiment in all cases: Standardized radiometric kinase assays, percentage of activity at 0.5 μM;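 note: Read-out is ³³P-labelled substrate protein phosphorylated by each kinase, captured on filters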
[1] = biological target: each individual kinase of the panel (Homo sapiens, UniProt P08631); conditions: for % Activity: Hck(h)
[2] = biological target: each individual kinase of the panel (Homo sapiens, UniProt P06241); conditions: for % Activity: Fyn(h)
each individual kinase of the panel (Homo sapiens, UniProt P06241), sequence (P06241 2-537 limits assumed): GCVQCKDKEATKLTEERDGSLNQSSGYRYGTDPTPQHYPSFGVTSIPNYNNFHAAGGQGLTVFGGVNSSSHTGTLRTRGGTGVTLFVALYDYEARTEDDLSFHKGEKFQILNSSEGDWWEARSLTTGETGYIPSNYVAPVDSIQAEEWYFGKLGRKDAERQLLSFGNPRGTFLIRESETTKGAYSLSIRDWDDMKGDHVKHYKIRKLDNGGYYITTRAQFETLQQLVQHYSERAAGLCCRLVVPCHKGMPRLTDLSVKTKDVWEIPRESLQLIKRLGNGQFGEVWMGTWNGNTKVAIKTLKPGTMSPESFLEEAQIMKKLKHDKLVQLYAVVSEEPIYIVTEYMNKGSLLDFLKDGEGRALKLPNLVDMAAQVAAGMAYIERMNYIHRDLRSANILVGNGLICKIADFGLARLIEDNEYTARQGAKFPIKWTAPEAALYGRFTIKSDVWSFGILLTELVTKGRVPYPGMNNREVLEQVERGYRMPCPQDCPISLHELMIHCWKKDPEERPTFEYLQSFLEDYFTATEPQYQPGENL

[3] = biological target: each individual kinase of the panel (Homo sapiens, UniProt P36888, D835Y); conditions: for % Activity: Flt3(D835Y)(h)
[4] = biological target: each individual kinase of the panel (Homo sapiens, UniProt Q96SB4); conditions: for % Activity: SRPK1(h)
[5] = biological target: each individual kinase of the panel (Homo sapiens, UniProt P35916); conditions: for % Activity: Flt4(h)
each individual kinase of the panel (Homo sapiens, UniProt P35916), sequence (P35916 25-1363 limits assumed): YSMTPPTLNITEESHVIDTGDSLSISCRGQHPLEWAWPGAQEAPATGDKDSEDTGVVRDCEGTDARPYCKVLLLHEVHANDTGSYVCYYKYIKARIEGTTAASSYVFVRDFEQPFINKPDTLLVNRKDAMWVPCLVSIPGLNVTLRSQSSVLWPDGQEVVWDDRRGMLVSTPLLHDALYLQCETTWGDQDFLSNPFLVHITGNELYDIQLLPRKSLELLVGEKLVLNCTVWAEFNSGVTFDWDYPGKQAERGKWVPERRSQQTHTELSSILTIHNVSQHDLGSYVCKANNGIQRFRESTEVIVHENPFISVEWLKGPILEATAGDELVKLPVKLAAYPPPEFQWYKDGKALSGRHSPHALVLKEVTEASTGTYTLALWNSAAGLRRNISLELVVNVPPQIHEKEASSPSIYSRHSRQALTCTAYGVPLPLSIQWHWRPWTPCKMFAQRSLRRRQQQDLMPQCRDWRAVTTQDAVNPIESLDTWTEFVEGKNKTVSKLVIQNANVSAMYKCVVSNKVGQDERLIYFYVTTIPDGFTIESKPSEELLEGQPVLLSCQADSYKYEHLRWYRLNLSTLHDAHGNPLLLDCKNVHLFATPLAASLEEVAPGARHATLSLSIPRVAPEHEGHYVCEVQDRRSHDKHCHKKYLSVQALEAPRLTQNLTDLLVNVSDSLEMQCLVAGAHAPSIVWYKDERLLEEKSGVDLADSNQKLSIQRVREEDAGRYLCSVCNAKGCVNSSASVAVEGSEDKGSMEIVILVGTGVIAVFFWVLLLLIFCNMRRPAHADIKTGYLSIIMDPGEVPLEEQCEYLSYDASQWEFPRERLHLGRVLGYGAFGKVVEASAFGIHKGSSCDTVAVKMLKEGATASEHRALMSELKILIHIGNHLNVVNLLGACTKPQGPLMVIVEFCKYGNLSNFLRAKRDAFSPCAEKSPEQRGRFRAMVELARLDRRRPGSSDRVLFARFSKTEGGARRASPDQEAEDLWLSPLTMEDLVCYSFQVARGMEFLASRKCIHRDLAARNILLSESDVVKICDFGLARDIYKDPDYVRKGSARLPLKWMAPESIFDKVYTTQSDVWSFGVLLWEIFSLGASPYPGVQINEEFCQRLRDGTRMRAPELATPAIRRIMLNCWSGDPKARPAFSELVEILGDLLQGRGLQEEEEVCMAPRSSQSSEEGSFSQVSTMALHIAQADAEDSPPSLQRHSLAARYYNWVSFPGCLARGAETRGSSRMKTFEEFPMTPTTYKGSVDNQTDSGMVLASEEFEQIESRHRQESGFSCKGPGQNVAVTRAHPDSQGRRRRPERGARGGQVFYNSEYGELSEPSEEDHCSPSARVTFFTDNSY

[6] = biological target: each individual kinase of the panel (Homo sapiens, UniProt P07949); conditions: for % Activity: Ret(h)
[7] = biological target: each individual kinase of the panel (Homo sapiens, UniProt P07332); conditions: for % Activity: Fes(h)
[8] = biological target: each individual kinase of the panel (Homo sapiens, UniProt O60674); conditions: for % Activity: JAK2(h)
[9] = biological target: each individual kinase of the panel (Homo sapiens, UniProt P54760); conditions: for % Activity: EphB4(h)
[10] = biological target: each individual kinase of the panel (Homo sapiens, UniProt P16591); conditions: for % Activity: Fer(h)
[11] = biological target: each individual kinase of the panel (Homo sapiens, UniProt P10721, D816H); conditions: for % Activity: cKit(D816H)(h)
[12] = biological target: each individual kinase of the panel (Homo sapiens, UniProt Q13464); conditions: for % Activity: ROCK-I(h)
[13] = biological target: each individual kinase of the panel (Homo sapiens, UniProt Q13177); conditions: for % Activity: PAK2(h)
[14] = biological target: each individual kinase of the panel (Homo sapiens, UniProt O75676); conditions: for % Activity: MSK2(h)
[15] = biological target: each individual kinase of the panel (Homo sapiens, UniProt P41240)
[16] = biological target: each individual kinase of the panel (Homo sapiens, UniProt Q9UK32); conditions: for % Activity: Rsk4(h)
[17] = biological target: each individual kinase of the panel (Homo sapiens, UniProt Q02763); conditions: for % Activity: Tie2(h)
each individual kinase of the panel (Homo sapiens, UniProt Q02763), sequence (Q02763 23-1124 limits assumed): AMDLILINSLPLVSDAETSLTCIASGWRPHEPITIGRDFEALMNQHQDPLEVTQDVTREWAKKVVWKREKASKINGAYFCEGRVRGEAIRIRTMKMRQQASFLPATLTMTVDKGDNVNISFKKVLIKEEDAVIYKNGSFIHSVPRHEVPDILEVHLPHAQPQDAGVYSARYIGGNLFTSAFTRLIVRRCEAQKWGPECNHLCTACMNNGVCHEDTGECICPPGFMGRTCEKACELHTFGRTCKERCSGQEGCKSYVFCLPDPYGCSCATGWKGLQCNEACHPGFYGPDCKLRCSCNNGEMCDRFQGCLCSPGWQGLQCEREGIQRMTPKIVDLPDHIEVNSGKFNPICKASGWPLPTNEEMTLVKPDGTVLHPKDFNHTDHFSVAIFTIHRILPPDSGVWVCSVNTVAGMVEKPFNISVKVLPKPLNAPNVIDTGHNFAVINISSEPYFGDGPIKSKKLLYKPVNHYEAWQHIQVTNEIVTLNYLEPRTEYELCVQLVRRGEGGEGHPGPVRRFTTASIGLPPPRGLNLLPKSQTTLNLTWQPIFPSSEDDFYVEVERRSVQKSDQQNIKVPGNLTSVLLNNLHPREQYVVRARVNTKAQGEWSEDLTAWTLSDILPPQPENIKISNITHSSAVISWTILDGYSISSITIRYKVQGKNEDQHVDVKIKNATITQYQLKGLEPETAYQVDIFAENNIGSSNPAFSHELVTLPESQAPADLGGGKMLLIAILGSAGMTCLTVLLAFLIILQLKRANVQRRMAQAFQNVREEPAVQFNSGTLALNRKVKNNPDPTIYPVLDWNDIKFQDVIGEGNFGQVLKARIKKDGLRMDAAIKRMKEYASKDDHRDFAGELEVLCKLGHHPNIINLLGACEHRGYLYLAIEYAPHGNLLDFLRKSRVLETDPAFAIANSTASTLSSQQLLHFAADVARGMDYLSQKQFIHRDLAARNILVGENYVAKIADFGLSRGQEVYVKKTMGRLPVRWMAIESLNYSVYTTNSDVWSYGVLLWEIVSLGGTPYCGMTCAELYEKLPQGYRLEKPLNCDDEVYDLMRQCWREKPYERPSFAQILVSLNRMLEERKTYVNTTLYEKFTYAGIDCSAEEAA

[18] = biological target: each individual kinase of the panel (Homo sapiens, UniProt O60285); conditions: for % Activity: ARK5(h)
[19] = biological target: each individual kinase of the panel (Homo sapiens, UniProt P04629); conditions: for % Activity: TrkA(h)
each individual kinase of the panel (Homo sapiens, UniProt P04629), sequence (P04629 33-796 limits assumed): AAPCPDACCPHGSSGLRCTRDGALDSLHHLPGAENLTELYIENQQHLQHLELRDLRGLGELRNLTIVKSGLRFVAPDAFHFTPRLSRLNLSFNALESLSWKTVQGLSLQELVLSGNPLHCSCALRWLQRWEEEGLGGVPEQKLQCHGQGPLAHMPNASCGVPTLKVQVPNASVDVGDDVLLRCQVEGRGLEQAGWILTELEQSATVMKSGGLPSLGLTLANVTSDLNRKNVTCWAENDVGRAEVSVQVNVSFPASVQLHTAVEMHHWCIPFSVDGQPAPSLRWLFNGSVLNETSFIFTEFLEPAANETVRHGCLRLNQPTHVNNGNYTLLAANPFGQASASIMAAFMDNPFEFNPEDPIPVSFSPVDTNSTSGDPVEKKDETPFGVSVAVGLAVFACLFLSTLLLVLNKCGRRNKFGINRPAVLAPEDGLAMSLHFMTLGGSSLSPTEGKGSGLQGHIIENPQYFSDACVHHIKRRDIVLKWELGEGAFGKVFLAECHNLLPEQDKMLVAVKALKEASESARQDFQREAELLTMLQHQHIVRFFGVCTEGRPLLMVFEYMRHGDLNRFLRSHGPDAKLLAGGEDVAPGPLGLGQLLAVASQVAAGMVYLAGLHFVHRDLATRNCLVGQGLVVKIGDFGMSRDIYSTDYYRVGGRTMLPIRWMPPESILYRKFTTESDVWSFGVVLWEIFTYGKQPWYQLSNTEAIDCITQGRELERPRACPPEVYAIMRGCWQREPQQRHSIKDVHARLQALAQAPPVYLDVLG

[20] = biological target: each individual kinase of the panel (Homo sapiens, UniProt P12931); conditions: for % Activity: cSRC(h)
[21] = biological target: each individual kinase of the panel (Homo sapiens, UniProt P10721); conditions: for % Activity: cKit(h)
[22] = biological target: each individual kinase of the panel (Homo sapiens, UniProt O14965); conditions: for % Activity: Aurora-A(h)
[23] = biological target: each individual kinase of the panel (Homo sapiens, UniProt P49841); conditions: for % Activity: GSK3β(h)
[24] = biological target: each individual kinase of the panel (Homo sapiens, UniProt P17252); conditions: for % Activity: PKCα(h)
[25] = biological target: each individual kinase of the panel (Homo sapiens, UniProt P36888); conditions: for % Activity: Flt3(h)
[26] = biological target: each individual kinase of the panel (Homo sapiens, UniProt P19784); conditions: for % Activity: CK2α2(h)
[27] = biological target: each individual kinase of the panel (Homo sapiens, UniProt O94804); conditions: for % Activity: LOK(h)
[28] = biological target: each individual kinase of the panel (Homo sapiens, UniProt P00533, L861Q); conditions: for % Activity: EGFR(L861Q)(h)
[29] = biological target: each individual kinase of the panel (Homo sapiens, UniProt Q15349); conditions: Rsk3(h)

each individual kinase of the panel (Homo sapiens, UniProt P08631), sequence (P08631 2-526 limits assumed): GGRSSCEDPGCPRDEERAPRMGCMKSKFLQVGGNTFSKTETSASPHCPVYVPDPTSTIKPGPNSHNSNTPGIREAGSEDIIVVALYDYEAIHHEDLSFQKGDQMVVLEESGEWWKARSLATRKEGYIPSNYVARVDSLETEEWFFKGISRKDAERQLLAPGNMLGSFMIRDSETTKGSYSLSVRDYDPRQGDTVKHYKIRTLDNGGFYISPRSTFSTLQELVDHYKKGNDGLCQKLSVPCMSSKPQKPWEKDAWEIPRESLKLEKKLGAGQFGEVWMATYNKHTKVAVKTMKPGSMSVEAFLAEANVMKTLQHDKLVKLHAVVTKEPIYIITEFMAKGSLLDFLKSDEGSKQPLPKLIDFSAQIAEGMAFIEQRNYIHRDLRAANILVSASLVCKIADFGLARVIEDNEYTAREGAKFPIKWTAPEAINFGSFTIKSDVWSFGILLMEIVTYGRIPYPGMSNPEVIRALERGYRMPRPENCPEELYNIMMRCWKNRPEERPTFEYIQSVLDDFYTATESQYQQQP

C#Cc1cccc(Nc2nc3cc(C(=O)O)ccc3c3cncnc23)c1 [drawing 1135]
HCK percentage of activity [1]: −11%
FYN percentage of activity [2]: −14%
FLT3(D835Y) percentage of activity [3]: 83%
SRPK1 percentage of activity [4]: 34%
FLT4 percentage of activity [5]: 101%
RET percentage of activity [6]: 14%
FES percentage of activity [7]: −39%
JAK2 percentage of activity [8]: 1%
EPHB4 percentage of activity [9]: −44%
FER percentage of activity [10]: −3%
cKit(D816H) percentage of activity [11]: −1%
ROCK-I percentage of activity [12]: 3%
PAK2 percentage of activity [13]: −12%
MSK2 percentage of activity [14]: 44%
CSK percentage of activity [15]: −46%
RPS6KA6 percentage of activity [16]: 22%
TIE2 percentage of activity [17]: 1%
ARK5 percentage of activity [18]: −8%
TRKA percentage of activity [19]: 10%
SRC percentage of activity [20]: −2%
Src(1-530) percentage of activity [20]: −1%
cKit(h) percentage of activity [21]: −14%
AURKA percentage of activity [22]: 6%
GSK3B percentage of activity [23]: 44%
PRKCA percentage of activity [24]: 1%
FLT3 percentage of activity [25]: 58%

NC(=O)c1ccc2c(c1)nc(Nc1cccc(Cl)c1)c1ccncc12 [drawing 1138]
HCK percentage of activity [1]: 28%
FYN percentage of activity [2]: 32%
FLT3(D835Y) percentage of activity [3]: 99%
SRPK1 percentage of activity [4]: 7%
FLT4 percentage of activity [5]: 40%
CK2 alpha 2 percentage of activity [26]: 96%
LOK percentage of activity [27]: 56%
FES percentage of activity [7]: −2%
JAK2 percentage of activity [8]: −4%
EPHB4 percentage of activity [9]: −16%
FER percentage of activity [10]: 8%
cKit(D816H) percentage of activity [11]: 63%
ROCK-I percentage of activity [12]: 11%
PAK2 percentage of activity [13]: 4%
MSK2 percentage of activity [14]: 9%
CSK percentage of activity [15]: 14%
EGFR(L861Q) percentage of activity [28]: 70%
TIE2 percentage of activity [17]: 45%
ARK5 percentage of activity [18]: 5%
TRKA percentage of activity [19]: 62%
cKit(h) percentage of activity [21]: −10%
AURKA percentage of activity [22]: 11%
GSK3B percentage of activity [23]: 26%
PRKCA percentage of activity [24]: 1%
FLT3 percentage of activity [25]: 100%

NC(=O)c1cccc2c1nc(Nc1cccc(Cl)c1)c1ccncc12 [B]
% Activity [1]: 62%
% Activity [2]: 49%
% Activity [3]: 2%
% Activity [4]: 91%
% Activity [5]: 41%
% Activity [26]: 51%
% Activity [6]: 73%
% Activity [27]: 87%
% Activity [7]: 94%
% Activity [29]: 40%
% Activity [8]: 55%
% Activity [9]: 105%
% Activity [10]: 103%
% Activity [11]: 9%
% Activity [12]: 97%
% Activity [13]: 108%
% Activity [14]: 65%
% Activity [16]: 41%
% Activity [28]: 54%
% Activity [17]: 93%
% Activity [18]: 98%
% Activity [19]: 23%
% Activity [20]: 74%
% Activity [21]: 88%
% Activity [22]: 77%
% Activity [23]: 25%
% Activity [24]: 97%
% Activity [25]: 7%

Clc1ccccc1Nc1nc2c(-c3nnc[nH]3)cccc2c2cnccc12 [A]
% Activity [1]: 61%
% Activity [2]: 49%
% Activity [3]: 24%
% Activity [4]: 107%
% Activity [5]: 17%
% Activity [26]: 73%
% Activity [6]: 43%
% Activity [27]: 63%
% Activity [7]: 84%
% Activity [29]: 7%
% Activity [8]: 39%
% Activity [9]: 87%
% Activity [10]: 90%
% Activity [11]: 8%
% Activity [12]: 94%
% Activity [13]: 106%
% Activity [14]: 51%
% Activity [16]: 12%
% Activity [28]: 60%
% Activity [17]: 108%
% Activity [18]: 39%
% Activity [19]: 6%
% Activity [20]: 64%
% Activity [21]: 89%
% Activity [22]: 43%
% Activity [23]: 23%
% Activity [24]: 99%
% Activity [25]: 5%
